# Experiment: Adsorption and release of C14 on powdered food pellet (PFP)
# Assay type: physicochemical
# Settings: 70 mg PFP in 500 ml 5 μM C14, 28° C., dark
# Experimental: C14 appeared to remain stably associated with food particles. Specifically, the C14 concentrations in the incubation buffers ranged from 0.01 μM (pH 7.0) to 0.024 μM (pH 9.5), corresponding to a release of just 2.14%-5.15% of the initial C14 amount.
# A standard food pellet for laboratory rodents, namely 4RF18 GLP (Mucedola Srl, Italy), commonly used as mosquito larval food, was crushed using an electric blender and then sieved (mesh diameter 500 μm) to obtain powdered food pellet (PFP) with final particle diameter of 5-500 μm diameter. C14-PFP complexes were obtained by incubating PFP in C14 solutions. The loading of C14 on PFP and the dynamics of its release from the C14-PFP complexes in water were analysed by spectrophotometric quantification. Specifically, to evaluate the C14 binding rate on PFP, 70 mg of PFP were incubated in 500 ml of a 5 μM solution of C14, at 28° C. for 5 days, in the dark. The same C14 solution without PFP served as control. The amount of unbound porphyrin was then estimated by measuring the absorbance at 423 nm of the supernatant of aliquots of the solutions collected at various incubation times and centrifuged at 10,000 rpm for 10 minutes. […] The amount of porphyrin released in the media from the formulate complexes was measured as described above. […]
structure (smiles),measurement,setting,value
"CCCCCCCCCCCCCC[n+]1ccc(-c2c3nc(c(-c4cc[n+](C)cc4)c4ccc([nH]4)c(-c4cc[n+](C)cc4)c4nc(c(-c5cc[n+](C)cc5)c5ccc2[nH]5)C=C4)C=C3)cc1.Cc1ccc(S(=O)(=O)[O-])cc1.Cc1ccc(S(=O)(=O)[O-])cc1.Cc1ccc(S(=O)(=O)[O-])cc1.Cc1ccc(S(=O)(=O)[O-])cc1 [C14, meso-tri(N-methyl-pyridyl), mono(N-tetradecyl-pyridyl)porphine]",C14 bound to the PFP particles,24 hours,82%
same,C14 bound to the PFP particles,5 days,92%

# From patent publication US20130296370A1, “COMPOSITION COMPRISING A PHOTOACTIVATABLE LARVICIDE” (UNIVERSITA DEGLI STUDI DI PADOVA, priority 2010, published 2013)
